The values that follow come from patent publication US9023806B2, “Peptide capable of altering tubulin polymerization and use thereof for inhibiting cell proliferation” (Universite d'Angers, priority 2004, dated 2015).

Entries after “also recorded” stand apart in the source; their conditions may differ.

In series [1] the test system is tubulin. Put plainly: Peptide-on-membrane chip blot overlay with purified tubulin. The series is classed as binding, mice. The conditions noted are these: purified tubulin overnight at 4° C., anti-βIII tubulin antibody. From the text: Peptide chips corresponding to the NFL, NFM and NFH neurofilament subunits were obtained according to Frank et al., 1992, with an ASP 222 automat spot robot. Each neurofilament sequence was divided into sequences of 15 amino acids.
These peptides overlap 12 amino acids of the next peptide. The overlapping peptides were synthesized on spots, like a chip, on a specially produced cellulose membrane (AIMS scientific product, GmbH, Braunschweig, Germany). The peptides are bound to the membrane with a polyethylene glycol bridge owing to their carboxy-terminal amino acid. The synthetic procedure followed is that of Frank et al., 1996.
Alternatively, the strips that were detected were cut out and analyzed by mass spectrometry. The peptide-on-membrane chip was incubated overnight at 4° C. with purified tubulin. After extensive washing with TBS (1×) the membranes were incubated with anti-βIII-tubulin antibodies in order to detect the amino acid sequences that interact with tubulin.
In order to identify the sequences responsible for the binding of tubulin to the neurofilaments, we use peptide-on-membrane chips, corresponding to the three neurofilament subunits (see experimental procedures). This method makes it possible to identify the binding domain involved in protein-protein interaction. […] The NFL subunit contains two tubulin binding sequences of 24 amino acids which we call NFL-TBS1 and NFL-TBS2 whereas NFM-TBS and NFH-TBS both contain 39 amino acids (FIG. 2A). […]

Series [2] concerns tubulin. Put plainly: Spectrophotometric (turbidimetry, OD 350 nm) analysis of microtubule polymerization. The settings on record: for influence on polymerization of microtubules (inhibition or activation): in vitro turbidimetry. The series is classed as biochemical, mice. As for the experimental part:
The alteration of tubulin polymerization is measured by measuring the turbidity (optical density at 350 nm) of a tubulin suspension. A decrease in turbidity of at least 1% is a sign of inhibition of tubulin polymerization.
The polymerization of tubulin from the supernatant S3 of a microtubule preparation was investigated by turbidimetry. Briefly, the supernatant S3 (3 mg/ml) was incubated at 37° C. in the presence of 1 mM of GTP in a Helios α thermospectronic spectrophotometer to monitor the variations in optical density at 350 nm.
To test this hypothesis, we conducted turbidimetry experiments with the various peptide sequences identified by blot overlay on the peptide chip. For this purpose, the supernatant S3 (containing free tubulin), obtained from a microtubule preparation, was polymerized at 37° C. in the presence of 1 mM GTP and several concentrations (3, 10, 30, and 100 μM) of tubulin binding peptide, which were added before polymerization (t=0).
As previously for the NF-TBS peptides, studies of the influence of the peptides of vimentin, cytokeratin and GFAP identified by peptide chip on the assembly of microtubules in vitro were carried out by the same technique as described previously in the Material and Method section (Spectrophotometric analysis of microtubule polymerization) in Example 1.

Series [3] deals with T98G cells. The series is described as follows: FACS (flow cytometry) cell cycle analysis. The series is classed as cell-based. From the text: (B-B′): Analysis by flow cytometry of control cells and cells treated with the peptides SEQ ID No. 6.
The microtubules constitute an important component of the achromatic spindle. To determine whether the presence of peptides SEQ ID No. 6 could affect cell division, the inventors usually carry out a FACS (Fluorescence Activated Cell Sorter) analysis to compare the distribution of the cycles of control cells and T98G cells treated with 10 μm of peptide SEQ ID No. 6.
In order to determine how a peptide that is an activator of microtubule polymerization affects cell division, a FACS analysis was carried out to compare the distribution of the cycles of untreated T98G cells (without peptide) or treated with 100 μm of peptide GFAP-TBS1 (SEQ ID No. 26), by the same protocol as that described in Example 2.

Series [4] deals with T98G cells. Put plainly: Peptide uptake and in-situ microtubule network by immunofluorescence. The series is classed as cell-based. The conditions noted are these: 6 hours. As for the experimental part: (A-A′-A″): The T98G cells are treated with the peptides SEQ ID No. 6 (10 μM) for 6 hours and the microtubules are then detected using an anti-tubulin antibody (red) and the biotinylated peptides SEQ ID No. 6 are detected using Alexa-labeled avidin (green).
To determine whether they could also modify the in-situ assembly of microtubules, T98G cells were incubated with 10 μm of biotinylated peptides SEQ ID No. 6. After incubation for 6 hours, more than 75% of the cells contain the peptide (FIG. 8 A, A′, A″) and are characterized by an unusual spherical shape.

Series [5] concerns T98G cells. The series is described as follows: MTS cell proliferation test. The series is classed as cell-based. From the text: The effect of exposure of peptide SEQ ID No. 6 on cell proliferation was confirmed using MTS analysis (described in Cory A. H. et al., 1991, Cancer Commun. 3, 207-212, incorporated here by reference) in which the inventors observed fewer cells in the cultures treated with peptide SEQ ID No. 6 (FIG. 8C).

On to “AYRRVPTETRSSFSRVSGSPSSGFRSQSWSRGSPSTVSS (listed as Mus musculus) [NFM-TBS]”, for which the “tubulin binding site detected on peptide chip” value (shortened to “tubulin binding site detected”) in the series on tubulin [1] is reported as “single binding sequence”.

With “FGYDPYFSTSYKRRYVETPRVHIS (listed as Mus musculus) [NFL-TBS1]”, in the series with tubulin [1], the “tubulin binding site detected” value was “tubulin binding domains”. Consider “GGAYVTRSSAVRLRSSVPGVRLLQ (listed as Mus musculus) [Vim-TBS2]”, for which the “influence on polymerization of microtubules (inhibition or activation)” value (“influence … (inhibition or activation)” for short) with tubulin [2] is recorded as “activate microtubule polymerization”. In the series with tubulin [1], the “tubulin binding site detected” value is listed as “tubulin binding sites”.

On to “GSEVHTKKTVMIKTIETRDGE (listed as Mus musculus) [Des-TBS3]”, for which the “tubulin binding site detected” value in the series with tubulin [1] was “tubulin binding sites”. For the sequence “KSVSEGHLKRNIVVKTVEMRD (listed as Mus musculus) [GFAP-TBS3]”, the “influence … (inhibition or activation)” value with tubulin [2] was “inhibitors of microtubule polymerization”. Besides, the “tubulin binding site detected” value in the series with tubulin [1] is “tubulin binding sites”. For “MERRRITSARRSYASETVVRGLGP (listed as Mus musculus) [GFAP-TBS1]”, the “cell cycle effect compared with control cells” value in the series with T98G cells [3] (100 μM, 36 hours) was “strong stopping in phase G1; also recorded: inhibits cell division”. For the same sequence, the “influence … (inhibition or activation)” value in the series with tubulin [2] was “activate microtubule polymerization”. The “tubulin binding site detected” value in the series on tubulin [1] was “tubulin binding sites”.

Turning to “MSIRVTQKSYKMSTSGPRAFSSRSFTSGPGARISSSSFSRVGSSSSSFRGSMGT (listed as Mus musculus) [Ker-TBS1]”, in the series with tubulin [2], the “influence … (inhibition or activation)” value was “activate microtubule polymerization”. In the series with tubulin [1], the “tubulin binding site detected” value was “tubulin binding sites”. “MSQAYSSSQRVSSYRRTFGGAPGFSLG (listed as Mus musculus) [Des-TBS1]”: the “tubulin binding site detected” value in the series on tubulin [1] is given as “tubulin binding sites”.

Turning to “MSTRSVSSSSYRRMFGGS (listed as Mus musculus) [Vim-TBS1]”, in the series on tubulin [1], the “tubulin binding site detected” value is “tubulin binding sites”. The same measure, in the same setting: under “QIKSLNNKFASFIDKVRFLEQ (listed as Mus musculus) [Ker-TBS2]” stands “tubulin binding sites”. On the same count and under the same terms, as for “RSAAGSSSGFHSWARTSVSSVSASPSRFRGAASSTDSLD (listed as Mus musculus) [NFH-TBS]”, the entry is “single binding sequence”; as for “SAGGSNTFSRTTKAVVVKKIETRDGKLVSE (listed as Mus musculus) [Ker-TBS3]”, “tubulin binding sites”. Turning to “SLPLVDTHSKRTLLIKTVETR (listed as Mus musculus) [Vim-TBS3]”, the “influence … (inhibition or activation)” value with tubulin [2] is “inhibitors of microtubule polymerization”. Further, the “tubulin binding site detected” value in the series with tubulin [1] is on record as “tubulin binding sites”. Turning to “SSPVFPRAGFGTKGSSSSMTSRVYQVSRTSGGAGGLGSLRSSRLGTTRAPSYGA (listed as Mus musculus) [Des-TBS2]”, the “tubulin binding site detected” value in the series on tubulin [1] was “tubulin binding sites”.

For the sequence “VRGLGPSRQLGTMPRFSLSRMTPPLPARVDFSLAGA (listed as Mus musculus) [GFAP-TBS2]”, the “tubulin binding site detected” value in the series with tubulin [1] is given as “tubulin binding sites”.

“YSSYSAPVSSSLSVRRSYSSSSGS (listed as Mus musculus) [NFL-TBS2]”: in the series with T98G cells [3] (10 μM, 48 hours), the “cell cycle effect compared with control cells” value is reported as “strong stopping in phase G1”. Moreover, in the series with T98G cells [3] (10 μm peptide, culture for 48 hours (untreated 39%)), the “cells in phase G1 of mitosis” value is recorded as 61%. Moreover, the “microtubule network in cells containing the peptide” value in the series with T98G cells [4] (10 μM, anti-tubulin antibody, listed as SEQ ID No. 6) is reported as “lack a typical microtubule network; also recorded: disunited network of microtubules”. Moreover, in the series on T98G cells [4] (biotinylated peptide, 10 μm), the “cells containing the peptide” value is “more than 75%”. Further, in the series on tubulin [2] (100 μM peptide, supernatant S3, 37° C., 1 mM GTP), the “inhibition of tubulin polymerization” value stood at 100%. The “influence … (inhibition or activation)” value in the series on tubulin [2] is “powerful effect; also recorded: inhibitors of microtubule polymerization”. Besides, the “proliferation of T98G cells relative to untreated control” value in the series with T98G cells [5] (10 μM for 48 hours, listed as SEQ ID No. 6) is “greatly reduced; also recorded: fewer cells”. Besides, the “degradation or elimination of peptide during culture” value in the series on T98G cells [5] (inferred from comparison with medium replaced at 24 hours) is recorded as “little (if any) degradation or elimination”. The “inhibition of the increase in number of cells” value with T98G cells [5] (medium containing peptide replaced at 24 hours, data not shown) is reported as “clearly observed”. For the same sequence, in the series with tubulin [1], the “tubulin binding site detected” value is on record as “tubulin binding domains”.
